Measurements reported in article PMC5655689, “Therapeutic potential of the phosphino Cu(I) complex (HydroCuP) in the treatment of solid tumors” (Scientific Reports, 2017).
Values joined by “and” are separate entries in the source; they are usually repeats but may differ in a detail not shown here. Equal entries are not always repeated.

How the values were obtained:
[1] = Nephrotoxicity: urinary biomarkers (uTP, NAG) in Sprague Dawley rats; type: in vivo, rat; settings: single i.p. 1.5 mg/kg, urine 24, 72, 120 h
Method: Figure 5 Neurotoxicity studies. […] Bar: 500 µm. […] Nephrotoxicity studies. […] Error bars indicate the S.D. The potential nephrotoxic effect of HydroCuP was evaluated by measuring some specific biomarkers in urines obtained from 8-week-old male Sprague Dawley rats treated with a single i.p. injection of HydroCuP and CDDP. Urines of the treated animals were collected after 24, 72 and 120 h, and urinary total protein (uTP) and N-acetyl-β-D-glucosaminidase (NAG) were evaluated as signs of nephrotoxicity. […] On the contrary, treatment with HydroCuP determined a 24 h excretion of uTP roughly 12 times lower than that recorded with CDDP (Fig. 5, panel D). Following 120 h, the levels of uTP excreted by HydroCuP were 11 times lower compared with the reference metallodrug. Eight-week-old male Sprague Dawley rats were randomly allocated to five groups (five animals per group) and treated with a single i.p. injection of HydroCuP (50 mg/kg) or the vehicle solution (0.2 mL saline solution, control). Cisplatin (1.5 mg/kg,) was also used under the same experimental conditions for comparison purposes. […] Later, urines were centrifuged (150 g for 10 minutes at room temperature) to discard debris and aliquoted to measure creatinine, uTP and NAG. Urine creatinine assays were performed using creatinine assay kit from Sigma Chemical Co. (St. Louis, MO). uTPs were measured by means of BioRad Total Protein Test (Hercules, CA). Urinary NAG was measured spectrophotometrically with the NAG kit (Roche diagnostics, Basel, Switzerland) according to the manufacturer’s protocols. uTP and NAG are expressed as grams per millimoles of creatinine (g mmol^−1 creatinine).

[2] = test system: Lewis Lung Carcinoma (LLC); assay: In vivo antitumor activity towards Lewis Lung Carcinoma (LLC) implanted i.m. in C57BL mice; parameters: species or system mouse; settings: for Average tumor weight (mean ± S.D., g) / Inhibition of tumor growth (%): day 15; for Body weight changes: LLC-bearing C57BL mice
Method: The schedule of HydroCuP administration in vivo was initially determined by assessing the total dose that could be injected without undue toxicity for different schedules in nontumor-bearing C57BL mice (data not shown). […] Three schedules of i.p. HydroCuP were administered: early treatment (days 3, 5, 7 and 9 after tumor inoculum), intermediate treatment (days 7–14) and late treatment with split-doses (days 9–11 with a loading dose and days 12–14 with a lower maintenance dose). […] Cisplatin treatment schedule was selected according to standard protocols designed to optimize its efficacy and minimize the occurrence of adverse events. For the early treatment, control mice received the vehicle (0.9% NaCl). HydroCuP was dosed at 25, 35 and 50 mg/kg i.p. on days 3, 5, 7, 9, 11 and 13 after tumor implantation. Cisplatin was dosed at 1.5 mg/kg i.p. on days 3, 5, 7, 9, 11 and 13 after tumor implantation.
The mice were purchased from Charles River, Italy, housed in steel cages under controlled environmental conditions (constant temperature, humidity, and 12 h dark/light cycle), and alimented with commercial standard feed and tap water ad libitum. The LLC cell line was purchased from ECACC, United Kingdom. The LLC cell line was maintained in DMEM (Euroclone, Pero, Italy) supplemented with 10% heat-inactivated foetal bovine serum (Euroclone, Pero, Italy), 10 mM L-glutamine, 100 U/mL penicillin, and 100 µg/mL streptomycin in a 5% CO2 air incubator at 37 °C. The LLC was implanted intramuscularly (i.m.) as a 2 × 10^6 cell inoculum into the right hind leg of 8-week old male and female C57BL mice (24 ± 3 g body weight). The antitumor activity of HydroCuP in LLC tumor model has been investigated by means of different schedules (early treatment, intermediate treatment and late treatment) and compared with that promoted by the reference metallodrug, CDDP. In the early-stage treatment, animals were treated at day 3, 5, 7, 9, 11 and 13 after the tumor cell inoculum with an i.p. injection of HydroCuP (25, 35 and 50 mg/kg), CDDP (1.5 mg/kg) or the vehicle solution (0.9% NaCl).
In the intermediate treatment, animals were treated after 7 days from tumor implantation (visible tumor) with daily i.p. doses of HydroCuP (30 and 50 mg/kg), CDDP (1.5 mg/kg) or the vehicle solution (0.9% NaCl). In the late treatment, animals were treated after 9 days from tumor implantation (palpable tumor) with i.p. doses of HydroCuP (50 mg/kg) from day 9 to day 11 and with i.p. doses of HydroCuP (30 mg/kg) from day 12 to day 14, or with daily doses of CDDP (1.5 mg/kg) or with the vehicle solution (0.9% NaCl). At day 15, animals were sacrificed, the legs were amputated at the proximal end of the femur, and the inhibition of tumor growth was determined according to the difference in weight of the tumor-bearing leg and the healthy leg of the animals expressed as a percentage referring to the control animals. Body weight was measured every 2 days and was taken as a parameter for systemic toxicity.

[3] = test system: LoVo human colon cancer spheroids; assay: 3D spheroid cell viability, acid phosphatase (APH) assay, LoVo; type: cell-based; settings: 72 h, APH test, read-out: IC50 (μM) ± SD LoVo
Method: (§1) In order to improve the predictive capacity of the in vitro assays, we tested HydroCuP activity in two 3D cell cultures of human colon cancer cells, HCT-15 and LoVo. The colon cancer spheroids were treated with HydroCuP for 72 h and the cell viability was assessed by means of the acid phosphatase (APH) assay (Fig. 1, panel A).
(§2) Figure 1 Activity in 3D cell cultures. (A) Spheroids (2.5 × 10^3 cells/well) were treated for 72 h with increasing concentrations of tested compounds. The growth inhibitory effect was evaluated by means of APH test. IC50 values were calculated from the dose-survival curves by four parameter logistic model (P < 0.05). SD = standard deviation.
(§3) Spheroids were initiated in liquid overlay by seeding 2.5 × 10^3 HCT-15 and LoVo cells/well in phenol red-free RPMI-1640 medium (Sigma Chemical Co.), containing 10% FCS and supplemented with 20% methyl cellulose stock solution. A total of 150 μl of this cell suspension was transferred to each well of a round bottom non-tissue culture treated 96 well-plate (Greiner Bio-one, Kremsmünster, Austria) to allow spheroid formation within 72 h.
(§4) A modified APH assay, which is based on quantification of cytosolic acid phosphatase activity, was used for determining cell viability in spheroids. Briefly, the pre-seeded spheroids were treated with fresh medium containing the compound to be studied at the appropriate concentration (range 5–150 μM). Triplicate cultures were established for each treatment. After 72 h, each well was treated with 100 μL of the assay buffer (0.1 M sodium acetate, 0.1% Triton-X-100, supplemented with ImmunoPure p-nitrophenyl phosphate; Sigma Chemical Co.) and, following 3 h of incubation, 10 μL of 1 M NaOH solution were added. The inhibition of the cell growth induced by the tested complexes was detected by measuring the absorbance of each well at 405 nm, using a Bio-Rad 680 microplate reader. Mean absorbance for each drug dose was expressed as a percentage of the control untreated well absorbance (T/C) and plotted vs drug concentration. IC50 values, the drug concentrations that reduce the mean absorbance at 405 nm 50% of those in the untreated control wells, were calculated by four-parameter logistic (4-PL) model. Evaluation was based on means from at least four independent experiments.

[4] = test system: DRG explants from 15 day-embryonic Sprague-Dawley rats; assay: Neurotoxicity: neurite elongation in DRG explants; settings: 48 h, DRG explants with NGF; for Neurotoxic effect (neurite elongation): OXP 5, 7.5, 10 μM, HydroCuP 5, 10, 20 μM
Method: To investigate the potential neurotoxic effect of HydroCuP, we employed a well-established in vitro model based on organotypic cultures of DRG from 15-day-old rat embryos. Neurite elongation under NGF influence was evaluated in DRG explants. […] For comparison purposes, the effect induced by the reference drugs OXP and CDDP was also tested.
OXP and HydroCuP toxicity at 48 h in DRG explants from 15 day-embryonic Sprague-Dawley rats. Representative images of neurite length in maturing DRG explants with different concentrations of OXP and HydroCuP (A). Bar: 500 µm.
DRG from E15 Sprague-Dawley rats (Envigo, San Pietro al Natisone, Italy) were aseptically removed and cultured onto a single layer of rat tail collagen surfaces in 35-mm dishes as previously described[36].
The DRG were incubated in AN2 medium [MEM added with 1.4 mM L-glutamine (Euroclone, Pero, Italy), 10% calf bovine serum (Hyclone, Thermo Scientific, Logan, UT) 50 µg/ml ascorbic acid, 0.6% glucose (Sigma-Aldrich) in the presence of 5 ng/ml nerve growth factor (NGF; Life Technologies, Monza, Italy) in a 5% CO2 humidified incubator at 37 °C.
To evaluate the neurotoxicity of HydroCuP and OXP, the DRG explants were treated for 2 h with NGF and subsequently exposed to each drug at different concentrations for 48 h. OXP was tested at 5, 7.5 and 10 μM while 5, 10 and 20 μM of HydroCuP was used. DRG treated with AN2 medium supplemented with 5 ng/ml NGF alone were used as controls. Phase-contrast micrographs were taken, and the length of the longest neurite in each DRG was measured by Image J (NIH, Bethesda, MD), using a standard calibration grating photographed at the same magnification. A compound is considered neurotoxic when the mean neurite elongation is reduced by 50% or more after drug exposure vs control.

[5] = parameters: method as in PMID 24035926; settings: patients under cisplatin treatment; cited from earlier work
[6] = test system: HCT-15 human colon cancer spheroids; assay: 3D spheroid cell viability, acid phosphatase (APH) assay, HCT-15; type: cell-based; settings: HCT-15 spheroids, 72 h, APH test; read-out: IC50 (μM) ± SD HCT-15
Method: as §1, §2, §3, §4

[7] = test system: LoVo colorectal oxaliplatin-sensitive xenograft; assay: In vivo activity toward LoVo (OXP-sensitive) tumor xenograft in BALB/c nu/nu mice
Method: (§5) To this aim, we developed the OXP-sensitive and OXP-resistant LoVo xenografts in BALB/c nu/nu mice. […] OXP-sensitive or OXP-resistant LoVo cells (1 × 10^7) were injected in the flank of mice. Once tumor was established (tumor volumes of about 0.4 cm^3, around 14 days after tumor inoculation), mice were randomly divided into six groups (6 animals per group, 8 controls). The HydroCuP-treated groups (6 mice each group) received daily 30 mg/kg by i.p. injection and the OXP-treated group was given 2 mg/kg by i.p. injection. At day 30, animals were sacrificed, and the inhibition of tumor growth was determined (Fig. 4, panel A). Measurements of body weights were recorded from day 14 every 2 days until the experimental endpoint (Fig. 4, panel B).
(§6) (A) LoVo and LoVo-OXP tumor xenografts in 6-week-old BALB/c nu/nu mice by injecting 1 × 10^7 tumor cells subcutaneously on the left dorsal flank. After 24 h from tumor implantation, mice randomly divided into six groups (6 animals per group). Chemotherapy delayed until day 14 (tumor volumes of about 0.4 cm^3). From day 14, HydroCuP dosed daily at 30 mg/kg i.p., OXP dosed daily at 2 mg/kg i.p. At day 30, animals sacrificed, and the inhibition of tumor growth determined by comparing the volume of the control group and the treatment group expressed as percentage referred to the control animals. Error bars indicate the S.D. *p < 0.05, **p < 0.01, with respect to control. […] Body weight was measured every two days and was taken as a parameter of systemic toxicity. The error bars indicate the S.D. **P < 0.01; *P < 0.05.
(§7) LoVo and LoVo-OXP tumor xenografts were established in 6-week-old BALB/c nu/nu mice by injecting 1 × 10^7 tumor cells subcutaneously (100 μL in serum free medium) on the left dorsal flank. After 24 h from tumor implantation, mice were randomly divided into six groups (6 animals per group, 8 controls). Chemotherapy was delayed until the tumor was about 0.4 cm^3 (day 14). From day 14, HydroCuP was dosed daily at 30 mg/kg i.p. whereas OXP was dosed daily at 2 mg/kg i.p. Measurements of body weights and tumor volumes were recorded from day 14 every 2 days until the experimental endpoint. The long axis (L) and the short axis (S) were measured with callipers, and the tumor volume (V) was calculated using the following equation: V = SxSxL/2. At day 30, animals were sacrificed, and the inhibition of tumor growth was determined by comparing the volume of the control group and the treatment group expressed as percentage referred to the control animals.

[8] = patients, reported by the Food and Drug Administration; cited from earlier work
[9] = test system: LoVo colorectal oxaliplatin-resistant xenograft; assay: In vivo activity toward LoVo-OXP (OXP-resistant) tumor xenograft in BALB/c nu/nu mice
Method: as §5, §6, §7

[10] = Early treatment, 1.5 mg/kg i.p. days 3, 5, 7, 9, 11, 13
[11] = 2 mg/kg daily i.p. from day 14, day 30

SMILES	NAG [1]	uTP excretion [1]	Average tumor weight (mean ± S.D., g) [2, 10] [g]	Inhibition of tumor growth (%) [2, 10] [%]	Body weight changes ([2]; Early treatment, 15 days)	Average tumor weight (mean ± S.D., g) ([2]; Intermediate treatment, 1.5 mg/kg daily i.p. day 7-14) [g]	Inhibition of tumor growth (%) ([2]; Intermediate treatment, 1.5 mg/kg daily i.p. day 7-14, 1.5 mg/kg)	Body weight changes ([2]; Intermediate treatment)	Average tumor weight (mean ± S.D., g) ([2]; Late treatment, 1.5 mg/kg daily i.p. from day 9) [g]	Inhibition of tumor growth (%) ([2]; Late treatment, 1.5 mg/kg daily i.p. from day 9, 1.5 mg/kg)	IC50 [3] [µM]	Neurotoxic effect (neurite elongation) [4]	Patients with irreversible renal damage [5]	IC50 [6] [µM]	Body weight loss ([7]; 2 mg/kg daily i.p.)	Inhibition of tumor growth [7, 11]	Reduction of neurite length ([4]; 7.5 µM) [%]	Rate of symptomatic neurotoxicity with any severity [8]	Body weight loss ([9]; 2 mg/kg daily i.p.)	Inhibition of tumor growth [9, 11] [%]
[NH2][Pt]([NH2])([Cl])[Cl] [CDDP, cisplatin, reference compound]	significant increase	significant increase of uTP excretion	0.168 ± 0.10	73.66	substantial weight loss	0.061 ± 0.03	87% and 87.84%	elevated weight loss	0.118 ± 0.10	73% and 72.68%	60.6 ± 6.28	significantly reduced neurite elongation in a dose-dependent manner	about one-third	68.2 ± 4.58	–	–	–	–	–	–
O=C1[O][Pt]2([NH][C@@H]3CCCC[C@H]3[NH]2)[O]C1=O [OXP, oxaliplatin]	–	–	–	–	–	–	–	–	–	–	22.2 ± 4.75	significantly reduced neurite elongation in a dose-dependent manner	–	30.2 ± 2.34	about 23%	about 55%	50	more than 70%	about 23%	20
